How the values were obtained:
PDGFRα = PDGFRα (Homo sapiens (Human), UniProt P16234); assay: PDGFRα kinase enzyme assay (Promega PDGFRα Kinase Enzyme System, ADP-Glo); format: biochemical; settings: 11-point dose response, 10,000 nM to 0.169 nM; 150 uM ATP; BLQ = below limit of quantitation; read-out: IC50 Values on PDGFRα Kinase Inhibition, IC50
Summary of the method: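 Purified PDGFRα protein (20 ng) reacted with test compound per the Promega kinase system protocol. ADP formed was measured by ADP-Glo luminescence against a standard curve, giving IC50.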

[1] = tested on: Oligodendrocyte progenitor cells (OPCs); assay: In vitro OPC differentiation assay, GPR17 expression (immunocytochemistry); settings: 3 μM (10× concentration, final 0.3 μM); 72 hours; fold change over vehicle

Sequence of PDGFRα (P16234 24-1089): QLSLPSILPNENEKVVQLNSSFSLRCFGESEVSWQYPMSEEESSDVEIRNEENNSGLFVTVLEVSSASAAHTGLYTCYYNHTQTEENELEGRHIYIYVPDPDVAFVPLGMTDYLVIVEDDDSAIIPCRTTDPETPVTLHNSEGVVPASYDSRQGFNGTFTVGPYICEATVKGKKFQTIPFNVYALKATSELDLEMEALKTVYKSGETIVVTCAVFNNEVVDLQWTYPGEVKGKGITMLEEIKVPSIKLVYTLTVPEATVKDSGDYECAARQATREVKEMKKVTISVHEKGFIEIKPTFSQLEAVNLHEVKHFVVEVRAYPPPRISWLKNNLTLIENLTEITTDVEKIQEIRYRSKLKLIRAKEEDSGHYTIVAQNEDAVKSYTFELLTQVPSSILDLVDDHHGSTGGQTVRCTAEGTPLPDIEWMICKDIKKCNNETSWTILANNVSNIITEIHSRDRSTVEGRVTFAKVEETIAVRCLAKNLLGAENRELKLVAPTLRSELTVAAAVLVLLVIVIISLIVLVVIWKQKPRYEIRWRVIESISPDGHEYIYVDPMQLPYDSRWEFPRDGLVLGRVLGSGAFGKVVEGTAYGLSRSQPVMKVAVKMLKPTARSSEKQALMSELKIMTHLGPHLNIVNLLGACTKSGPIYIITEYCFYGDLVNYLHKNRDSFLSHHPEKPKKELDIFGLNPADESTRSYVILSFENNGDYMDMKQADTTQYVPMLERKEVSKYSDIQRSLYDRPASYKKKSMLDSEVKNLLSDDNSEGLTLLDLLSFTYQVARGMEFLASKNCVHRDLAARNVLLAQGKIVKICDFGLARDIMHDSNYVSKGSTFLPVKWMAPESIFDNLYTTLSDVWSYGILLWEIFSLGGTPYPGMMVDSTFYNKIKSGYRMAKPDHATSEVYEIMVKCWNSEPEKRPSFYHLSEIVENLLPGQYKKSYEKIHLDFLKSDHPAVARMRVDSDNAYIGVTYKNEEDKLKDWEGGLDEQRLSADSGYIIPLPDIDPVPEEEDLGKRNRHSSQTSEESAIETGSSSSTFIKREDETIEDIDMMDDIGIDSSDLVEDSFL

Row | Compound | IC50 (PDGFRα) [nM] | GPR17 Fold Induction (Over Vehicle; 3 μM) [1]
1 | Cn1cc(-c2ccc3c(N4CCN(c5ncc(Cn6ccc7ccccc76)cn5)CC4)cnn3c2)cn1 [Compound 191, 3-(4-(5-((1H-indol-1-yl)methyl)pyrimidin-2-yl)piperazin-1-yl)-6-(1-methyl-1H-pyrazol-4-yl)pyrazolo[1,5-a]pyridine] | 287 | 23.57
2 | Cn1cc(-c2ccc3c(N4CCN(c5ncc([C@H](O)[C@@H]6CCCOC6)cn5)CC4)cnn3c2)cn1 [Compound 192, (R)-(2-(4-(6-(1-methyl-1H-pyrazol-4-yl)pyrazolo[1,5-a]pyridin-3-yl)piperazin-1-yl)pyrimidin-5-yl)((R)-tetrahydro-2H-pyran-3-yl)methanol] | 31 | 14.76
3 | Cn1cc(-c2ccc3c(N4CCN(c5ncc([C@@H](O)[C@@H]6CCCOC6)cn5)CC4)cnn3c2)cn1 [Compound 193, (S)-(2-(4-(6-(1-methyl-1H-pyrazol-4-yl)pyrazolo[1,5-a]pyridin-3-yl)piperazin-1-yl)pyrimidin-5-yl)((R)-tetrahydro-2H-pyran-3-yl)methanol] | 69.1 | 11.72
4 | Cn1cc(-c2ccc3c(N4CCN(c5ncc(C(O)C6CCCCO6)cn5)CC4)cnn3c2)cn1 (centres unmarked) [Compound 194, (2-(4-(6-(1-methyl-1H-pyrazol-4-yl)pyrazolo[1,5-a]pyridin-3-yl)piperazin-1-yl)pyrimidin-5-yl)(tetrahydro-2H-pyran-2-yl)methanol] | 195 | 8.67
5 | Cn1cc(-c2ccc3c(N4CCN(C(=O)OCc5ncc(Cl)s5)CC4)cnn3c2)cn1 [Compound 195, (5-chlorothiazol-2-yl)methyl 4-(6-(1-methyl-1H-pyrazol-4-yl)pyrazolo[1,5-a]pyridin-3-yl)piperazine-1-carboxylate] | 1230 | 5.57
6 | Cn1cc(-c2ccc3c(N4CCN(C(=O)OCc5ccc(Cl)s5)CC4)cnn3c2)cn1 [Compound 196, (5-chlorothiophen-2-yl)methyl 4-(6-(1-methyl-1H-pyrazol-4-yl)pyrazolo[1,5-a]pyridin-3-yl)piperazine-1-carboxylate] | 522 | 5.65
7 | Cn1cc(-c2ccc3c(N4CCN(C(=O)OCc5csc(Cl)c5)CC4)cnn3c2)cn1 [Compound 197, (5-chlorothiophen-3-yl)methyl 4-(6-(1-methyl-1H-pyrazol-4-yl)pyrazolo[1,5-a]pyridin-3-yl)piperazine-1-carboxylate] | 65.3 | 12.24
8 | Cc1cnc(COC(=O)N2CCN(c3cnn4cc(-c5cnn(C)c5)ccc34)CC2)o1 [Compound 199, (5-methyloxazol-2-yl)methyl 4-(6-(1-methyl-1H-pyrazol-4-yl)pyrazolo[1,5-a]pyridin-3-yl)piperazine-1-carboxylate] | 1240 | 4.08
9 | Cn1cc(-c2ccc3c(N4CCN(Cc5csc(Cl)c5)CC4)cnn3c2)cn1 [Compound 200, 3-(4-((5-chlorothiophen-3-yl)methyl)piperazin-1-yl)-6-(1-methyl-1H-pyrazol-4-yl)pyrazolo[1,5-a]pyridine] | 6960 | 2.20
10 | Cc1ccc(CN2CCN(c3cnn4cc(-c5cnn(C)c5)ccc34)CC2)o1 [Compound 201, 6-(1-methyl-1H-pyrazol-4-yl)-3-(4-((5-methylfuran-2-yl)methyl)piperazin-1-yl)pyrazolo[1,5-a]pyridine] | > 10000 | 1.30
11 | CC(C)(C)OC(=O)N1CCN(c2cnn3cc(CCCO)ccc23)CC1 [Compound 204, tert-butyl 4-(6-(3-hydroxypropyl)pyrazolo[1,5-a]pyridin-3-yl)piperazine-1-carboxylate] | > 10000 | 1.20
12 | CC(C)(C)OC(=O)N1CCN(c2cnn3cc(CCCN4CCCC4)ccc23)CC1 [Compound 205, tert-butyl-4-(6-(3-(pyrrolidin-1-yl)propyl)pyrazolo[1,5-a]pyridin-3-yl)piperazine-1-carboxylate] | > 10000 | 1.92
13 | CC(C)(C)OC(=O)N1CCN(c2cnn3cc(C4CCCC4)ccc23)CC1 [Compound 214, tert-butyl 4-(6-cyclopentylpyrazolo[1,5-a]pyridin-3-yl)piperazine-1-carboxylate] | > 10000 | 2.00
14 | CC(C)(C)OC(=O)N1CCN(c2cnn3cc(C4CCC(O)C4)ccc23)CC1 (centres unmarked) [Compound 215, tert-butyl 4-[6-(3-hydroxycyclopentyl)pyrazolo[1,5-a]pyridin-3-yl]piperazine-1-carboxylate] | > 10000 | 0.76
15 | CC(C)(C)OC(=O)N1CCN(c2cnn3cc(-c4cncnc4)ccc23)CC1 [Compound 219, tert-butyl 4-(6-(pyrimidin-5-yl)pyrazolo[1,5-a]pyridin-3-yl)piperazine-1-carboxylate] | > 10000 | 1.42
16 | CN1CCC(c2ccc3c(N4CCN(C(=O)OC(C)(C)C)CC4)cnn3c2)C1 (centres unmarked) [Compound 223, tert-butyl 4-(6-(1-methylpyrrolidin-3-yl)pyrazolo[1,5-a]pyridin-3-yl)piperazine-1-carboxylate] | 9250 | 1.13
17 | CC(C)(C)OC(=O)N1CCN(c2cnn3cc(C4CCOCC4)ccc23)CC1 [Compound 224, tert-butyl-4-(6-(tetrahydro-2H-pyran-4-yl)pyrazolo[1,5-a]pyridin-3-yl)piperazine-1-carboxylate] | > 10000 | 0.66

More lines, now with the values ahead:

Row | IC50 (PDGFRα) [nM] | GPR17 Fold Induction (Over Vehicle; 3 μM) [1] | Compound
18 | > 10000 | 1.35 | CCCc1ccc2c(N3CCN(C(=O)OC(C)(C)C)CC3)cnn2c1 [Compound 203, tert-butyl 4-(6-propylpyrazolo[1,5-a]pyridin-3-yl)piperazine-1-carboxylate]
19 | 5340 | 3.32 | CC(C)(C)OC(=O)N1CCN(c2cnn3cc(-c4ccccc4)ccc23)CC1 [Compound 206, tert-butyl 4-(6-phenylpyrazolo[1,5-a]pyridin-3-yl)piperazine-1-carboxylate]
20 | 4830 | 2.24 | CC(C)(C)OC(=O)N1CCN(c2cnn3cc(-c4ccc(F)cc4)ccc23)CC1 [Compound 207, tert-butyl 4-(6-(4-fluorophenyl)pyrazolo[1,5-a]pyridin-3-yl)piperazine-1-carboxylate]
21 | > 10000 | 1.22 | CC(C)(C)OC(=O)N1CCN(c2cnn3cc(-c4cccc(F)c4)ccc23)CC1 [Compound 208, tert-butyl 4-(6-(3-fluorophenyl)pyrazolo[1,5-a]pyridin-3-yl)piperazine-1-carboxylate]
22 | > 10000 | 2.02 | CC(C)(C)OC(=O)N1CCN(c2cnn3cc(-c4ccccc4F)ccc23)CC1 [Compound 209, tert-butyl-4-(6-(2-fluorophenyl)pyrazolo[1,5-a]pyridin-3-yl)piperazine-1-carboxylate]
23 | 7480 | 4.38 | COc1ccc(-c2ccc3c(N4CCN(C(=O)OC(C)(C)C)CC4)cnn3c2)cc1 [Compound 210, tert-butyl 4-(6-(4-methoxyphenyl)pyrazolo[1,5-a]pyridin-3-yl)piperazine-1-carboxylate]
24 | 7380 | 2.54 | COc1cccc(-c2ccc3c(N4CCN(C(=O)OC(C)(C)C)CC4)cnn3c2)c1 [Compound 211, tert-butyl 4-(6-(3-methoxyphenyl)pyrazolo[1,5-a]pyridin-3-yl)piperazine-1-carboxylate]
25 | 3670 | 2.51 | COc1ccccc1-c1ccc2c(N3CCN(C(=O)OC(C)(C)C)CC3)cnn2c1 [Compound 212, tert-butyl 4-(6-(2-methoxyphenyl)pyrazolo[1,5-a]pyridin-3-yl)piperazine-1-carboxylate]
26 | > 10000 | 0.68 | CC(C)(C)OC(=O)N1CCN(c2cnn3cc(C4CC4)ccc23)CC1 [Compound 213, tert-butyl 4-{6-cyclopropylpyrazolo[1,5-a]pyridin-3-yl}piperazine-1-carboxylate]
27 | 1000 | 1.92 | CC(C)(C)OC(=O)N1CCN(c2cnn3cc(-c4ccccn4)ccc23)CC1 [Compound 216, tert-butyl 4-[6-(pyridin-2-yl)pyrazolo[1,5-a]pyridin-3-yl]piperazine-1-carboxylate]
28 | 2310 | 3.46 | CC(C)(C)OC(=O)N1CCN(c2cnn3cc(-c4ccncc4)ccc23)CC1 [Compound 218, tert-butyl 4-(6-(pyridin-4-yl)pyrazolo[1,5-a]pyridin-3-yl)piperazine-1-carboxylate]
29 | 528 | 5.20 | Cc1nn(C)cc1-c1ccc2c(N3CCN(C(=O)OC(C)(C)C)CC3)cnn2c1 [Compound 220, tert-butyl 4-(6-(1,3-dimethyl-1H-pyrazol-4-yl)pyrazolo[1,5-a]pyridin-3-yl)piperazine-1-carboxylate]
30 | 506 | 6.61 | Cc1c(-c2ccc3c(N4CCN(C(=O)OC(C)(C)C)CC4)cnn3c2)cnn1C [Compound 221, tert-butyl 4-(6-(1,5-dimethyl-1H-pyrazol-4-yl)pyrazolo[1,5-a]pyridin-3-yl)piperazine-1-carboxylate]
31 | 912 | 3.74 | Cc1nn(C)c(C)c1-c1ccc2c(N3CCN(C(=O)OC(C)(C)C)CC3)cnn2c1 [Compound 222, tert-butyl 4-(6-(1,3,5-trimethyl-1H-pyrazol-4-yl)pyrazolo[1,5-a]pyridin-3-yl)piperazine-1-carboxylate]

Source: patent publication US20250129067A1 (Progentos Therapeutics, Inc., priority 2021, published 2025)
